Reference: ChEMBL document CHEMBL1201862, “PubChem BioAssay data set” (2004)
Blank lines part the entries; values can stand above or below the compound they belong to. Activity calls are given as the source filed them.

Legend:
H9c2 = experiment: cells; format: functional, cell-based; conditions: Rattus norvegicus, H9c2, Myocardium;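 also: confirmatory concentration-response retest of ultra-high-throughput screening hits for modulation of myocardial damage; cell death induced by hydrogen peroxide oxidative stress; compound pretreatment for 60 min then peroxide exposure for 2 h; potency is for protecting the cells against peroxide damage rather than for killing them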
INS1 = experiment: INS-1E survival protection against cytokine death – cell-based, luminescence, retest, dose response (AID 449756); format: functional; conditions: Rattus norvegicus;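 also: cell death triggered by IL-1 beta plus TNF-alpha plus IFN-gamma mixture; protective hits raise ATP signal compared with cytokine alone wells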
[1] = molecular target: T1, Corticotropin-releasing factor receptor 2/Corticotropin-releasing factor-binding protein (Homo sapiens, UniProt P24387+Q13324); experiment: Dose Response confirmation of uHTS hits for small molecule antagonists of the CRF-binding protein and CRF-R2 receptor complex.; format: functional; conditions: read-out: IC50_Mean
T1 sequence (Q13324 whole entry): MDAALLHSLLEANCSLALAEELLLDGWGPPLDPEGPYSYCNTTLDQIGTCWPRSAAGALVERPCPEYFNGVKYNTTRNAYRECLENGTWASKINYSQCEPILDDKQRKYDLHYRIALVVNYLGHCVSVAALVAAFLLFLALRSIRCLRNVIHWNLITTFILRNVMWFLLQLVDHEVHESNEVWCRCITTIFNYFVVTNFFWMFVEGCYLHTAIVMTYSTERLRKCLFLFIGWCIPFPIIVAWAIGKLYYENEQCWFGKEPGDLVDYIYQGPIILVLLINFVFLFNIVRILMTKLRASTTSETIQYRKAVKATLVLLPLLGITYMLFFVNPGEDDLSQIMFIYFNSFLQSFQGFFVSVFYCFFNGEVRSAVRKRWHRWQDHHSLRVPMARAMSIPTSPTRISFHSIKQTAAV
T1 sequence (P24387 whole entry): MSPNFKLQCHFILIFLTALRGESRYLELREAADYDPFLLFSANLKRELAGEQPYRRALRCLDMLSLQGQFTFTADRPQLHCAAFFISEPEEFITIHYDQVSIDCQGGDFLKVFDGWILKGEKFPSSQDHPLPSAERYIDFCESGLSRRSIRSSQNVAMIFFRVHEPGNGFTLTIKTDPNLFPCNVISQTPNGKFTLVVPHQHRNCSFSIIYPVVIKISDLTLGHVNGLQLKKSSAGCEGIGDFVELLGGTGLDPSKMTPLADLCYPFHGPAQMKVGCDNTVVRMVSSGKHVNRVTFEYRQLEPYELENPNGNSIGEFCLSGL

[2] = molecular target: T1, Corticotropin-releasing factor receptor 2/Corticotropin-releasing factor-binding protein; experiment: activators of CRF receptor 2 with binding protein – uHTS hits, confirmation (AID 602473); format: functional; conditions: read-out: EC50_Mean
[3] = blockers of CRF-binding protein–CRF-R2 complex – cell-based, uHTS hits, 384-well, dose response (AID 651639); format: functional, Homo sapiens; conditions: read-out: IC50_Mean
[4] = molecular target: T2, Sentrin-specific protease 7 (Homo sapiens, UniProt Q9BQF6); experiment: inhibition of human SENP7 cleavage activity – biochemical, luminescence, SAR follow-up (AID 504497); format: functional
T2 sequence (Q9BQF6 whole entry): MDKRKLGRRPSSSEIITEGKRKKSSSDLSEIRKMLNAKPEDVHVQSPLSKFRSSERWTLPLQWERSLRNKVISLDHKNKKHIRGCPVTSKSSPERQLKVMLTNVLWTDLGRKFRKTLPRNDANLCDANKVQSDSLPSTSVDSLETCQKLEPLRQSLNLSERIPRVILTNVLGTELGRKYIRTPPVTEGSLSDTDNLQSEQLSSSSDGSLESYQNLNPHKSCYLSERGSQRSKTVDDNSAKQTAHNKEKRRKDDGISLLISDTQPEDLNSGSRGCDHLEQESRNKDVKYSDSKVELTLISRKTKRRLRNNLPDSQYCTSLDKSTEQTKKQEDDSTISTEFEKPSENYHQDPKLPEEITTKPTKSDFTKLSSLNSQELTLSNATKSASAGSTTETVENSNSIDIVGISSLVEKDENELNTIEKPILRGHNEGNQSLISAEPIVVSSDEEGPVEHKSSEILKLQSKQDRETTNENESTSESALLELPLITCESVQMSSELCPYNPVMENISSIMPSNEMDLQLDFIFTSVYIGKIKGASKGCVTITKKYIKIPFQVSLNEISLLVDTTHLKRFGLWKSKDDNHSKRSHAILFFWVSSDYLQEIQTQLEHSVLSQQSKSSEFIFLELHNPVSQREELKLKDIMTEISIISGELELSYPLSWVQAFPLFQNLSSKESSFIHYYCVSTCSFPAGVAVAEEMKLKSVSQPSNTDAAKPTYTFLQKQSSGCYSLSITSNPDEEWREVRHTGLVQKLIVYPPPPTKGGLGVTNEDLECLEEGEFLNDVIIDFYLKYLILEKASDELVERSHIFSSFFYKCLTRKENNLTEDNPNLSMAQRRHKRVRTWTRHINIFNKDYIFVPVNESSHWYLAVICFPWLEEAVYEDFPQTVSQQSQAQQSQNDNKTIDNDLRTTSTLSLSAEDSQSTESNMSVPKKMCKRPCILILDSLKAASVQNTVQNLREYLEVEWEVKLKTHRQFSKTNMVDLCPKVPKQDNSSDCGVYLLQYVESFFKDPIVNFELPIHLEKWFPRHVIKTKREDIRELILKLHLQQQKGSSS

[5] = molecular target: T3, Sentrin-specific protease 6 (Homo sapiens, UniProt Q9GZR1); experiment: SAR Analysis of small molecule inhibitors of Sentrin-specific protease 6 (SENP6) using a Luminescent assay. [Related pubchem assays (depositor defined):AID2582, AID2599]; format: functional
T3 sequence (Q9GZR1 whole entry): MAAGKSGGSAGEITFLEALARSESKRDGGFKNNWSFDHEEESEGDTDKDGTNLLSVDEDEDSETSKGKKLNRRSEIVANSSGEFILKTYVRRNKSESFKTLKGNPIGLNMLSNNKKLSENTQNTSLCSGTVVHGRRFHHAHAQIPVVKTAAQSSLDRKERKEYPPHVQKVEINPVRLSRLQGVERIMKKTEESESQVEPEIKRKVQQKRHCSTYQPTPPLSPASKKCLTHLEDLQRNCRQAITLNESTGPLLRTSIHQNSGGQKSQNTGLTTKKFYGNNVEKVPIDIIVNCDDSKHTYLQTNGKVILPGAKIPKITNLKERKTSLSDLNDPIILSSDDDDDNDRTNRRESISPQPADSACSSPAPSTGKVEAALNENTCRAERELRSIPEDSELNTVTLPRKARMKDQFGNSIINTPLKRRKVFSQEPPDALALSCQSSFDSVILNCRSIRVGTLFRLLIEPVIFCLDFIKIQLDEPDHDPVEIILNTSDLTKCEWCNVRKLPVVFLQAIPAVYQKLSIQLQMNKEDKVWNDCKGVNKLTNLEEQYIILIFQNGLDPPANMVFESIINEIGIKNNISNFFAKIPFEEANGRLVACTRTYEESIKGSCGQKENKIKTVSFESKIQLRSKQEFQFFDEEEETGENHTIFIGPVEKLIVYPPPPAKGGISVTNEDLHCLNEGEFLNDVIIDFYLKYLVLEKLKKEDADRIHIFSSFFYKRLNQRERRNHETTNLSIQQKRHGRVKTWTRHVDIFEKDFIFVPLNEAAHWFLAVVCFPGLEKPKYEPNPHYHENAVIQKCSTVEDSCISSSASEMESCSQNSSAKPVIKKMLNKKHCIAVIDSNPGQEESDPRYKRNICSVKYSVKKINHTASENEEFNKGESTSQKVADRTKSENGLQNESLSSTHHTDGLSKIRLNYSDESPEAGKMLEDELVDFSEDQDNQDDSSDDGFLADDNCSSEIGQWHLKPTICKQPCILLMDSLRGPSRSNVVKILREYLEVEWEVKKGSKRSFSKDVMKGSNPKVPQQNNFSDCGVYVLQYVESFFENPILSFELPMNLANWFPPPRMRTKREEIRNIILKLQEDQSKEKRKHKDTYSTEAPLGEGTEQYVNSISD

Caspase-3 = molecular target: T4, Caspase-3 (Homo sapiens, UniProt P42574); experiment: SAR Analysis of small molecule inhibitors of Sentrin-specific proteases (SENPs) using a Caspase-3 Selectivity assay. [Related pubchem assays (depositor defined):AID2540, AID2599, AID434973, AID489001]; format: functional
T4 sequence (P42574 whole entry): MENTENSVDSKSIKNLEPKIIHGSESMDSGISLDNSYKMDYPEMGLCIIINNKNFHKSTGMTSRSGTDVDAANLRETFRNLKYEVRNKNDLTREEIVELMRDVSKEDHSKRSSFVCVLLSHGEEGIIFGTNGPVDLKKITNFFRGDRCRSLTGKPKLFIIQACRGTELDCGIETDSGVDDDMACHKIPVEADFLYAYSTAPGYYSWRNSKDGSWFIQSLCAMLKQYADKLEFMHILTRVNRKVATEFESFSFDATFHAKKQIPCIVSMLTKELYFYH

[6] = molecular target: T5, Sentrin-specific protease 8 (Homo sapiens, UniProt Q96LD8); experiment: inhibition of human SENP8 cleavage activity – biochemical, luminescence, SAR follow-up (AID 504501); format: functional
T5 sequence (Q96LD8 whole entry): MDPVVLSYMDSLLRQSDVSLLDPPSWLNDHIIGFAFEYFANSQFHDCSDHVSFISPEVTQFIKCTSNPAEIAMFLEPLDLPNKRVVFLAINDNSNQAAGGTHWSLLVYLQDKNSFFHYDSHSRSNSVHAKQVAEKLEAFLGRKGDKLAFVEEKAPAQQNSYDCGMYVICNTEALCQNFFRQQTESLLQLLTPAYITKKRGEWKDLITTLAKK

SN12K1 = experiment: cells; format: functional; conditions: Homo sapiens
[7] = intracellular Trypanosoma cruzi inhibitors in host cells – cell-based, plate reader, cherry-pick samples, set 3, dose response (AID 651818); format: functional;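 also: compounds incubated with infected cells for about four days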

Compound: CCOC(=O)c1c(C)[nH]c(C(=O)COc2ccc3ccc(=O)oc3c2)c1C
IC50 (H9c2): 23.7 µM (active)

Compound: Cc1ccc(C(=O)Nc2nc(-c3ccccn3)cs2)s1
AC50 (INS1): 1.67 µM (active)
IC50 (H9c2): > 79 µM (inactive)

Compound: Cc1ccc(C(C)C)c(OCC(=O)NNC(=O)Cn2[nH]c(=O)c3ccccc3c2=O)c1
IC50 (H9c2): > 79 µM (inactive)

Compound: CCOc1cc(/C=C(\C#N)C(=O)Nc2ccc(S(N)(=O)=O)cc2)ccc1OCCN1CCOCC1
IC50 (H9c2): > 79 µM (inactive)

IC50 [1]: < 0.368 µM (active)
EC50 [2]: > 53 µM (inactive)
IC50 [3]: > 20 µM (inactive)
Compound: Cc1ccc(S(=O)(=O)c2nnn3c2nc(N2CCOCC2)c2ccccc23)c(C)c1

IC50 [1]: 18.7 µM (active)
EC50 [2]: > 53 µM (inactive)
IC50 [3]: 8.28 µM (active)
Compound: O=C(NCc1ccc2c(c1)OCO2)c1c(F)c(F)c(F)c(F)c1F

IC50 [1]: 7.86 µM (active)
EC50 [2]: > 53 µM (inactive)
IC50 [3]: 15.4 µM (active)
Compound: COC(=O)c1ccc(CSc2nc3c(c(=O)n2-c2ccc(Br)cc2)SCC3)o1

IC50 [1]: 4.74 µM (active)
EC50 [2]: > 53 µM (inactive)
IC50 [3]: > 20 µM (inactive)
Compound: Clc1cccc(-c2nnc(SC/C=C/c3ccccc3)n2Cc2ccco2)c1

Compound: CC(C)(C)OC(=O)C[C@@H]1C/C=C\C[C@@H](CC(=O)N[C@H](CO)Cc2ccccc2)C(=O)NC[C@@H](c2ccccc2)OC1=O
IC50 (H9c2): > 79 µM (inactive)

Compound: C[C@H](CO)N1C[C@H](C)[C@@H](CN(C)S(=O)(=O)c2ccc(F)cc2)Oc2ccc(NC(=O)Nc3ccc4c(c3)OCO4)cc2C1=O
IC50 (H9c2): > 79 µM (inactive)

IC50 [4]: > 99 µM (inactive)
IC50 [5]: > 99 µM (inactive)
IC50 (Caspase-3): > 99 µM (inactive)
Compound: CCCc1ccccc1-c1nc(/C=C/c2ccccc2)no1
IC50 [6]: > 99 µM (inactive)

IC50 [4]: > 99 µM (inactive)
IC50 [5]: > 99 µM (inactive)
IC50 (Caspase-3): > 99 µM (inactive)
Compound: CN(C)CCN(C(=O)c1ccc(Cl)s1)c1nc2ccc(F)cc2s1
IC50 [6]: > 99 µM (inactive)

IC50 [4]: > 99 µM (inactive)
IC50 [5]: > 99 µM (inactive)
IC50 (Caspase-3): > 99 µM (inactive)
Compound: CCOc1ccc2nc(NC(=O)Cn3c(=O)oc4ccc(C(=O)N5CCCC5)cc43)sc2c1
IC50 [6]: > 99 µM (inactive)

IC50 [4]: > 99 µM (inactive)
IC50 [5]: > 99 µM (inactive)
IC50 (Caspase-3): > 99 µM (inactive)
Compound: CCCCc1ccc2nc(NC(=O)c3oc4ccccc4c3C)sc2c1
IC50 [6]: > 99 µM (inactive)

IC50 [4]: > 99 µM (inactive)
IC50 [5]: > 99 µM (inactive)
IC50 (Caspase-3): > 99 µM (inactive)
Compound: Cc1[nH]c(=O)sc1S(=O)(=O)N1CCN(C(=O)c2sc3cc(F)ccc3c2Cl)CC1
IC50 [6]: > 99 µM (inactive)

Compound: O=C(OC(=O)n1ccc2ccccc21)n1ccc2ccccc21
GI50 (SN12K1): > 100 µM (inactive)

Compound: Cc1noc(C)c1S(=O)(=O)Nc1ccc2c(c1)C(=O)N([C@@H](C)CO)C[C@H](C)[C@H](CN(C)Cc1ccc(C(=O)Nc3ccccc3N)cc1)O2
AC50 [7]: 2.08 µM (active)

Compound: C[C@@H]1CN([C@H](C)CO)C(=O)Cc2cc(NC(=O)Cc3cn(C)c4ccccc34)ccc2O[C@H]1CN(C)CC1CCCCC1
AC50 [7]: 8.13 µM (active)

Compound: C[C@@H]1CN([C@H](C)CO)C(=O)Cc2cc(NC(=O)Nc3cccc4ccccc34)ccc2O[C@@H]1CN(C)Cc1ccc(C(F)(F)F)cc1
AC50 [7]: 4.02 µM (active)

Compound: C[C@@H]1CN([C@@H](C)CO)C(=O)c2cc(NC(=O)Cc3cn(C)c4ccccc34)ccc2O[C@H]1CN(C)Cc1ccc(C(F)(F)F)cc1
AC50 [7]: 4.31 µM (active)

Compound: C[C@@H]1CN([C@H](C)CO)C(=O)Cc2cc(NC(=O)Nc3ccc(F)cc3)ccc2O[C@H]1CN(C)CC1CCCCC1
AC50 [7]: 6.17 µM (active)

Compound: C[C@@H]1CN([C@H](C)CO)C(=O)Cc2cc(NS(=O)(=O)c3ccc(Cl)cc3)ccc2O[C@H]1CN(C)CC1CCCCC1
AC50 [7]: 2.67 µM (active)
